Data: ChEMBL document CHEMBL1201862, “PubChem BioAssay data set” (2004)
Activity calls are given as the source filed them.

Assays:
Bcl-2-related protein A1 = target: T1, Bcl-2-related protein A1 (Mus musculus, UniProt Q07440); type: functional;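 also: confirmatory dose–response counterscreen on Bfl-1, used to check hits from a UBC13 polyubiquitin inhibitor campaign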
T1 sequence (Q07440 whole entry): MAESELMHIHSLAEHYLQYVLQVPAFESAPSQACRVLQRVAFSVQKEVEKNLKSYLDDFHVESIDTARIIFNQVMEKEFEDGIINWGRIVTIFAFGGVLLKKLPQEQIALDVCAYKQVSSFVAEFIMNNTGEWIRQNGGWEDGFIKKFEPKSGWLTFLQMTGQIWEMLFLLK

[1] = target: T2, Ubiquitin-conjugating enzyme E2 N (Homo sapiens, UniProt P61088); type: functional
T2 sequence (P61088 whole entry): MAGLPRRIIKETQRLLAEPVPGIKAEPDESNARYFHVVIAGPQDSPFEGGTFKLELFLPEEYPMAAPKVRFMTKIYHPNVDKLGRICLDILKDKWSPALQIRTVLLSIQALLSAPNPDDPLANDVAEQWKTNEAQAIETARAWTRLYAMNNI

[2] = target: T2, Ubiquitin-conjugating enzyme E2 N; type: functional; remark: listed apart in the source
[3] = target: T3, Delta-type opioid receptor (Homo sapiens, UniProt P41143); experiment: HTS Image-Based Screen for Antagonists of the DOR Receptor. [Related pubchem assays (depositor defined):AID1777, AID1785, AID1786, AID2133]; type: functional
T3 sequence (P41143 whole entry): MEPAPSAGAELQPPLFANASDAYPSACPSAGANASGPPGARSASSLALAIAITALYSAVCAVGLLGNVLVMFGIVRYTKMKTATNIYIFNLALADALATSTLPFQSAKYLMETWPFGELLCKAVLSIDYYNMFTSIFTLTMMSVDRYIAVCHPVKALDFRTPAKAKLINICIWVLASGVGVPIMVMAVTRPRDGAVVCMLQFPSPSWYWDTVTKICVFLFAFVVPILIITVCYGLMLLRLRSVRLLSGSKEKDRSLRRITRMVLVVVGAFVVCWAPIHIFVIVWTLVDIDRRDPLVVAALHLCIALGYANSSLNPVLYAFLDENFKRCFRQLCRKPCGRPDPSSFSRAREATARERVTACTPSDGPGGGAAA

[4] = target: T4, Kappa-type opioid receptor (Homo sapiens, UniProt P41145); experiment: KOR antagonists by imaging, SAR follow-up, image-based (AID 2348); type: functional
T4 sequence (P41145 whole entry): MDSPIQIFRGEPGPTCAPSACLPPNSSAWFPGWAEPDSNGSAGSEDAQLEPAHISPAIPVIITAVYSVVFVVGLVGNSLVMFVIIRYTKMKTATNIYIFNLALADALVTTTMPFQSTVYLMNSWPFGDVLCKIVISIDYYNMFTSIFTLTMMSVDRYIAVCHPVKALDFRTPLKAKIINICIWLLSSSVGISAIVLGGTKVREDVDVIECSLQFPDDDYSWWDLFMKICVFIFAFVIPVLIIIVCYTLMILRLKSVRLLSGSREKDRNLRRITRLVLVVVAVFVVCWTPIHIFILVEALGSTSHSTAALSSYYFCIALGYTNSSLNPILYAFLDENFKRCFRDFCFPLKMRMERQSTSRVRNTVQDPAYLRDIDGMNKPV

Mu-type opioid receptor [5] = target: T5, Mu-type opioid receptor (Homo sapiens, UniProt P35372); experiment: MOR agonists by imaging, SAR follow-up, image-based (AID 2352); type: functional
T5 sequence (P35372 whole entry): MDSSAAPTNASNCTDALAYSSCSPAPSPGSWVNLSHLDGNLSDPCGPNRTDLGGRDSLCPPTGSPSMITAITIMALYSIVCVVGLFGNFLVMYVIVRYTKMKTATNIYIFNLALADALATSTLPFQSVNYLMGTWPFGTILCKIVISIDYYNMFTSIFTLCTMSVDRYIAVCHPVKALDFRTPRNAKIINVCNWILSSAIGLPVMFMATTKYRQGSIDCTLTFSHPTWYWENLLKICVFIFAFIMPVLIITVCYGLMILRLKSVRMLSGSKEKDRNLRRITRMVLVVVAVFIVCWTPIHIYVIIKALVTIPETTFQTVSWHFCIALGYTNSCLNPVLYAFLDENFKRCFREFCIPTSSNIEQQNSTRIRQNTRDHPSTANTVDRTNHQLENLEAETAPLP

Mu-type opioid receptor [6] = target: T5, Mu-type opioid receptor; experiment: MOR antagonists, SAR follow-up, image-based (AID 2420); type: functional;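 also: compounds added before stimulation of receptor with agonist DAMGO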
[7] = target: T3, Delta-type opioid receptor; experiment: HTS Image-Based Screen for Agonists of the DOR Receptor. [Related pubchem assays (depositor defined):AID1777, AID1786, AID2133]; type: functional
[8] = target: T3, Delta-type opioid receptor; experiment: DOR antagonists, SAR follow-up, image-based (AID 2357); type: functional
Mu-type opioid receptor [9] = target: T5, Mu-type opioid receptor; experiment: HTS Image-Based Screen for Agonists of the MOR Receptor. [Related pubchem assays (depositor defined):AID1777, AID1785, AID1786, AID2133]; type: functional
[10] = target: T4, Kappa-type opioid receptor; experiment: SAR analysis of small molecule agonists of the kappa opioid receptor via a luminescent beta-arrestin assay. [Related pubchem assays (depositor defined):AID1777, AID1786, AID1966, AID2133, AID2136, AID2348, AID2352, AID2357, AID2359, AID2370, AID2420, AID2478, AID2491, AID2492, AID2493, AID2497, AID2498, AID2500, AID449737, AID488822, AID488842]; type: functional
[11] = target: T4, Kappa-type opioid receptor; type: functional
[12] = target: T4, Kappa-type opioid receptor; type: functional; remark: listed apart in the source
[13] = target: T4, Kappa-type opioid receptor; experiment: KOR agonist analogs, imaging readout, SAR follow-up, image-based (AID 2359); type: functional
[14] = target: T3, Delta-type opioid receptor; experiment: DOR agonists, SAR follow-up, image-based (AID 2370); type: functional
[15] = target: Intestinal-type alkaline phosphatase (Mus musculus, UniProt P24822); experiment: mouse intestinal alkaline phosphatase activators, dose response, biochemical, luminescence, uHTS hits (AID 488783); type: functional
Chain of Intestinal-type alkaline phosphatase (Mus musculus, UniProt P24822) (P24822 whole entry): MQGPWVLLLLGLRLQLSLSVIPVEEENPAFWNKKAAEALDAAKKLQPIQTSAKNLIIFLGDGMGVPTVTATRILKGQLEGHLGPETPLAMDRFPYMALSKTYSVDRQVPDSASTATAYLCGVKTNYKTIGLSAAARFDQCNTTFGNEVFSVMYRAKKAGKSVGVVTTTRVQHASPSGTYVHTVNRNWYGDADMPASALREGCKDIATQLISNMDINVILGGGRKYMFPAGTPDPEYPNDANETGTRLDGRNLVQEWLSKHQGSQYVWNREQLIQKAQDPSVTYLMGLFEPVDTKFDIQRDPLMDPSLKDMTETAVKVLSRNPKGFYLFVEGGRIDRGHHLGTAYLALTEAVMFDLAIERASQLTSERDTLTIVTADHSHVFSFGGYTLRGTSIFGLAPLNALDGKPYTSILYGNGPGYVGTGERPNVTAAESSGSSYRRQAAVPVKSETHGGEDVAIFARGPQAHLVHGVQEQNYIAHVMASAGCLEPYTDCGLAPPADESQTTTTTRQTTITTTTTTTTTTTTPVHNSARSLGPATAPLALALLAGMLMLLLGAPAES

[16] = target: Intestinal-type alkaline phosphatase (Homo sapiens, UniProt P09923); experiment: activation of human intestinal alkaline phosphatase – biochemical, dose response (AID 488873); type: functional
Chain of Intestinal-type alkaline phosphatase (Homo sapiens, UniProt P09923) (P09923 whole entry): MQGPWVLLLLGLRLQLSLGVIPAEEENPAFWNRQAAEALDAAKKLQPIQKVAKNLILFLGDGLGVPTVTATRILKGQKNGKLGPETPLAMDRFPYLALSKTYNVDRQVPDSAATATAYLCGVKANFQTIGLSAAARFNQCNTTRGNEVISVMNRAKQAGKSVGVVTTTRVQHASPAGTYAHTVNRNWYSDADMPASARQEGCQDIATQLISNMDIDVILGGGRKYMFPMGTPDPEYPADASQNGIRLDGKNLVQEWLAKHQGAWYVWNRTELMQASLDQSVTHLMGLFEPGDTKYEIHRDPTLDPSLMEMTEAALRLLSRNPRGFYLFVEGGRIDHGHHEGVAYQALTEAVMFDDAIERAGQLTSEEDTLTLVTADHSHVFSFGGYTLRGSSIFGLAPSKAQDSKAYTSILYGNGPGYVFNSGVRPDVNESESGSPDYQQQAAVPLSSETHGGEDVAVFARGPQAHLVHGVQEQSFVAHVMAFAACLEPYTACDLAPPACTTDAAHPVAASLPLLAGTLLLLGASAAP

Caspase-6 = target: T6, Caspase-6 (Homo sapiens, UniProt P55212); experiment: human caspase-6 inhibitors, dose response, biochemical, VEID-R110 fluorescence, cherry-pick (AID 720632)
T6 sequence (P55212 whole entry): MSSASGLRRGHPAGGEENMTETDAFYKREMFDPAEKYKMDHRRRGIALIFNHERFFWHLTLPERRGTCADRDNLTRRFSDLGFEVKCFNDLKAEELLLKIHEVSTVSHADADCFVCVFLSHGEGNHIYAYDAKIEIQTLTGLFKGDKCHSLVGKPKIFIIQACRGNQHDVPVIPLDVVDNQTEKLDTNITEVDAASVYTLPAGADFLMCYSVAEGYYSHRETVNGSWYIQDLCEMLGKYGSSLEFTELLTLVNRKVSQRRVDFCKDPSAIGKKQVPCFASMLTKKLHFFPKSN

[17] = target: T7, Alkaline phosphatase, tissue-nonspecific isozyme (Homo sapiens, UniProt P05186); experiment: TNAP enzyme activators, dose response, selectivity assay for mouse IAP activator project, biochemical, TNAP isozyme, mouse IAP uHTS hits (AID 488880); type: functional
T7 sequence (P05186 whole entry): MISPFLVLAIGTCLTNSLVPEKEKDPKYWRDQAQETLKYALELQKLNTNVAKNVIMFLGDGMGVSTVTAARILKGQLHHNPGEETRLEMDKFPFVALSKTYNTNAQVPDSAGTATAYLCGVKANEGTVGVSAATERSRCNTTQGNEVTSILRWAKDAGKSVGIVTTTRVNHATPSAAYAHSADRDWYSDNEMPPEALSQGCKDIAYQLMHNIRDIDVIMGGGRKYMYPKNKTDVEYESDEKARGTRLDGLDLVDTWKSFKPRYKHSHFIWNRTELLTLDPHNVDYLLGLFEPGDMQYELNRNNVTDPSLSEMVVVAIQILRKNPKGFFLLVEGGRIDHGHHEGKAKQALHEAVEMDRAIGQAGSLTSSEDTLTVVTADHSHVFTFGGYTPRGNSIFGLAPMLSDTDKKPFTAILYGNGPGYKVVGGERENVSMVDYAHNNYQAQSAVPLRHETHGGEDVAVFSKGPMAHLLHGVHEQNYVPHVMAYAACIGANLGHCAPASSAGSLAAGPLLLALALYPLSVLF

Protein RecA = target: T8, Protein RecA (Mycobacterium tuberculosis, UniProt P9WHJ3); experiment: Fluorescence Cell-Free Homogeneous Dose Retest to Identify Inhibitors of RecA-Intein Splicing Activity. [Related pubchem assays (depositor defined):AID2097, AID2223, AID489010, AID492950]; type: functional
T8 sequence (P9WHJ3 whole entry): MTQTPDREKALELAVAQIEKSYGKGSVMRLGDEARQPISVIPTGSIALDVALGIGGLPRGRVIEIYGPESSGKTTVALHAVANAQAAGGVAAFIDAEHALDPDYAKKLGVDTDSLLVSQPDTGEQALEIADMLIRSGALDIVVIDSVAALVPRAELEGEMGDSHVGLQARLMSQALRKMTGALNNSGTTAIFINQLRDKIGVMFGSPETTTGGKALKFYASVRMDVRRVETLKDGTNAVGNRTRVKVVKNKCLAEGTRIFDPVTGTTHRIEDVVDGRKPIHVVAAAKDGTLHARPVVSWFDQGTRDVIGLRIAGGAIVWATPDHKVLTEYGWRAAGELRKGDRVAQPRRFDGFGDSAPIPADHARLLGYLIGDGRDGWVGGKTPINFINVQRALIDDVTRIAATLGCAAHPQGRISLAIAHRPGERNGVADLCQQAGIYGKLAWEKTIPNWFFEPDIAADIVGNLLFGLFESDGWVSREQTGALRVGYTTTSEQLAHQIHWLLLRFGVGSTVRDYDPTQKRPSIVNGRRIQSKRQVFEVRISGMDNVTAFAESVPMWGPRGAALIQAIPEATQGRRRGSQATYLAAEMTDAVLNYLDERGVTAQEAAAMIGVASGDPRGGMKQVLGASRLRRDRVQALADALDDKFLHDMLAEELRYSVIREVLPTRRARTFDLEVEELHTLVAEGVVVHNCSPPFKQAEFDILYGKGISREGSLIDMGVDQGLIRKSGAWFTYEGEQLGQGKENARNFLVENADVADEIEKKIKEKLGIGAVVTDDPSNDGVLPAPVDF

[18] = target: T9, Orexin/Hypocretin receptor type 1 (Homo sapiens, UniProt O43613); experiment: Homogeneous Time Resolved Fluorescence (HTRF)-based cell-based high throughput dose response assay for antagonists of the orexin 1 receptor (OX1R; HCRTR1). [Related pubchem assays (depositor defined):AID434989, AID435008, AID463079, AID485270, AID492963, AID492964, AID492965, AID493232, AID504717, AID504718]; type: functional
T9 sequence (O43613 whole entry): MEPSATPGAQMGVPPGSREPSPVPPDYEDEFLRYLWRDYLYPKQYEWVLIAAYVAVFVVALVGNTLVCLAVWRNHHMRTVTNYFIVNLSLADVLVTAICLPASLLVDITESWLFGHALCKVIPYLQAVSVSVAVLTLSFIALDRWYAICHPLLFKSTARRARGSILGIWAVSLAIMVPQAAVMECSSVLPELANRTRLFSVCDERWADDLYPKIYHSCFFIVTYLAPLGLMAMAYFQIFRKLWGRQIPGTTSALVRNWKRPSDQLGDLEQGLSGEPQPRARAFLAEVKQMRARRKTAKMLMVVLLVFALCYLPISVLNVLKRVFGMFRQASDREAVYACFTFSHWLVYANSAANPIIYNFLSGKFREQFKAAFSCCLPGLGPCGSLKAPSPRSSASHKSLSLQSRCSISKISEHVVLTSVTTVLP

[19] = target: T9, Orexin/Hypocretin receptor type 1; experiment: Fluorescence-based cell-based high throughput dose response assay for antagonists of the orexin 1 receptor (OX1R; HCRTR1). [Related pubchem assays (depositor defined):AID434989, AID435008, AID463079, AID485270, AID492963, AID492964, AID492965, AID493232, AID504717, AID504718]; type: functional
[20] = Counterscreen for antagonists of the orexin 1 receptor (OX1R; HCRTR1): Fluorescence-based cell-based high throughput dose response assay to identify antagonists of the parental CHO cell line. [Related pubchem assays (depositor defined):AID434989, AID435008, AID463079, AID485270, AID492963, AID492964, AID492965, AID493232, AID504699, AID504701]; type: functional
CHO-K1 = experiment: Counterscreen for antagonists of the orexin 1 receptor (OX1R; HCRTR1): Homogeneous time resolved fluorescence (HTRF)-based cell-based dose response assay to identify antagonists of the parental CHO-K1 cell line. [Related pubchem assays (depositor defined):AID434989, AID435008, AID463079, AID485270, AID492963, AID492964, AID492965, AID493232, AID504699, AID504701]; type: functional; details: Cricetulus griseus;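 also: potency for inhibition of ATP-stimulated IP1 production as antagonists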
[21] = target: T10, Replicative DNA helicase DnaB (Mycobacterium tuberculosis, UniProt P9WMR3); experiment: DnaB intein splicing inhibitors, dose response, biochemical, cell-free fluorescence (AID 449749); type: functional
T10 sequence (P9WMR3 whole entry): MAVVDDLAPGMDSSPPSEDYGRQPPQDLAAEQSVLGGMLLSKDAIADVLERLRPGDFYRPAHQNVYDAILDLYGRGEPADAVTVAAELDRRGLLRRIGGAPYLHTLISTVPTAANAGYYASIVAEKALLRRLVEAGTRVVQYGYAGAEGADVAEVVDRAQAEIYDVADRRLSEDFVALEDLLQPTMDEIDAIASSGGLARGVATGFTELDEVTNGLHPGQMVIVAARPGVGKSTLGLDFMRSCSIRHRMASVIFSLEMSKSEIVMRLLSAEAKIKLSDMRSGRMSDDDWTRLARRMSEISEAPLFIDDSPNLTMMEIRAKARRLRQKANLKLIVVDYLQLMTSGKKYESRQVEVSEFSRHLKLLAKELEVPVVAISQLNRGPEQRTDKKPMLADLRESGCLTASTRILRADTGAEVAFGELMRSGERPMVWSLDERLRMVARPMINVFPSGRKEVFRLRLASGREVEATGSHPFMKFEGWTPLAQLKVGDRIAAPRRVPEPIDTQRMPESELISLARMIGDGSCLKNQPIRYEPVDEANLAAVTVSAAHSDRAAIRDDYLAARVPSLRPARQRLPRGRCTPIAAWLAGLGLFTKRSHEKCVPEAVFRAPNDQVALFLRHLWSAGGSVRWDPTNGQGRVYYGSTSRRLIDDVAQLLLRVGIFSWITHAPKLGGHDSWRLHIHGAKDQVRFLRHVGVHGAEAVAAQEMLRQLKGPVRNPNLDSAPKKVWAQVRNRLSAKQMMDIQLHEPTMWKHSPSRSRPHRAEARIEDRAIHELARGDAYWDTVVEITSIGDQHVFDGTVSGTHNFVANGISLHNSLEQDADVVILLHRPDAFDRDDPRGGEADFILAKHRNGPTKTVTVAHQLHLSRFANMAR

[22] = target: Signal transducer and activator of transcription 3 (Homo sapiens, UniProt P40763); experiment: STAT3 inhibitors, late-stage profile, late-stage follow-up, cell-based, STAT1 panel, qPCR, cytotoxicity, panel member STAT3 Inhibition (AID 2078)
Chain of Signal transducer and activator of transcription 3 (P40763 whole entry): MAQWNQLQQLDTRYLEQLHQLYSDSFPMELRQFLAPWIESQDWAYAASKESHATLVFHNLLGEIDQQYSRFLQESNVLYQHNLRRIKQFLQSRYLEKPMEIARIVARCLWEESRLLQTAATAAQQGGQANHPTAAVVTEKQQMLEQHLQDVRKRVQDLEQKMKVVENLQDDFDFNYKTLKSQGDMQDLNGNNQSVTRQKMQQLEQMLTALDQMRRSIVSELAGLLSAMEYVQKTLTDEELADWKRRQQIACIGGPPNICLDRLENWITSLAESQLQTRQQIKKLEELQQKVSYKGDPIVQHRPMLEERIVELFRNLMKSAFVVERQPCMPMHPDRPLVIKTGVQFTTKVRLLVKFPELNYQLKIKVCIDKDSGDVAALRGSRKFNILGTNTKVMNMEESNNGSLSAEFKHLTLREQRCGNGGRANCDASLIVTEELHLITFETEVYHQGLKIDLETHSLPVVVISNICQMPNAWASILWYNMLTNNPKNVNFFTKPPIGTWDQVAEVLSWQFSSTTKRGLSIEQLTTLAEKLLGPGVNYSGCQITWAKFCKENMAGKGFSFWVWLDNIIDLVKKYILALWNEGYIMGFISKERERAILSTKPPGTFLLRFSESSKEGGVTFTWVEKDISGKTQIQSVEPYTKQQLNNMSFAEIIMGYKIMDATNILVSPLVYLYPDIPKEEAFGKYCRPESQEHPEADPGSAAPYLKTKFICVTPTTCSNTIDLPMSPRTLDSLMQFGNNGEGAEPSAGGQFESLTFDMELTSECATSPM

[23] = target: Signal transducer and activator of transcription 1-alpha/beta (Homo sapiens, UniProt P42224); experiment: STAT3 inhibitors, late-stage profile, late-stage follow-up, cell-based, STAT1 panel, qPCR, cytotoxicity, panel member STAT1 Inhibition (AID 2078)
Chain of Signal transducer and activator of transcription 1-alpha/beta (P42224 whole entry): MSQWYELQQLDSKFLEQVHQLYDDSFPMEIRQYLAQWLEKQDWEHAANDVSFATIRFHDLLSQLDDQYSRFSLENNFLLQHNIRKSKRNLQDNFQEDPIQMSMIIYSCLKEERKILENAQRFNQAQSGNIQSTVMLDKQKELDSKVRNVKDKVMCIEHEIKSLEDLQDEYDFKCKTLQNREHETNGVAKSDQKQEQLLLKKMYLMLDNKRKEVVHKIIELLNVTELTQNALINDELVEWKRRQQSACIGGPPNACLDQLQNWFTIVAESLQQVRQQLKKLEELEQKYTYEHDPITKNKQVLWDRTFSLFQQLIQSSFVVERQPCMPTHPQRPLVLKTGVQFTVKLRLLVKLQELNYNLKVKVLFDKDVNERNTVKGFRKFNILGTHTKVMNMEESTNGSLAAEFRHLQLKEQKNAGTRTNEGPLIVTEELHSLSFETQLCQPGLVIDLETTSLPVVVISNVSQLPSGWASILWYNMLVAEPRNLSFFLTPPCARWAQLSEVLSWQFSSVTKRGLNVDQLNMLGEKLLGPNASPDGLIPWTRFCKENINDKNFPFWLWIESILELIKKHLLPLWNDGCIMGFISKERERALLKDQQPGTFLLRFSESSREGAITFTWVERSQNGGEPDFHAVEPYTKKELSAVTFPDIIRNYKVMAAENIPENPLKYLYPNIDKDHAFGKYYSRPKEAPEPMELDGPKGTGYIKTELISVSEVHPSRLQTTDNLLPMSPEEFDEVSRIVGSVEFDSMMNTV

Compound: CCOC(=O)c1nn(-c2ccccc2)c(=O)cc1OCC(=O)Nc1ccccc1OCC
- IC50 (Bcl-2-related protein A1): > 20 µM (inactive)
- IC50 [1]: 14.9 µM (active)
- IC50 [2]: > 20 µM (inactive)

Compound: C(=C\c1ccccc1)/CSc1nnc(-c2ccccn2)n1Cc1ccco1
- IC50 [3]: > 32 µM (inactive)
- IC50 [4]: > 32 µM (inactive)
- EC50 (Mu-type opioid receptor [5]): > 32 µM (inactive)
- IC50 (Mu-type opioid receptor [6]): > 32 µM (inactive)
- EC50 [7]: > 32 µM (inactive)
- IC50 [8]: > 32 µM (inactive)
- EC50 (Mu-type opioid receptor [9]): > 32 µM (inactive)
- EC50 [10]: 2.22 µM (active)
- EC50 [11]: 3.18 µM
- EC50 [12]: 5.22 µM
- EC50 [13]: 1.43 µM (active)
- EC50 [14]: > 32 µM (inactive)

Compound: O=C(COC(=O)c1ccc(Br)o1)Nc1ncc([N+](=O)[O-])s1
- EC50 [15]: 39.9 µM (active)
- EC50 [16]: 68.4 µM (active)
- AC50 (Caspase-6): 8.5 µM (active)
- EC50 [17]: 85.8 µM (active)

Compound: COc1ccc(S(=O)(=O)Nc2c(O)ccc3ccccc23)cc1OC
- EC50 (Protein RecA): 2.85 µM (active)
- IC50 [18]: 3.15 µM (active)
- IC50 [19]: > 16.6 µM (inactive)
- IC50 [20]: > 49.8 µM (inactive)
- IC50 (CHO-K1): 27 µM (inactive)
- AC50 [21]: 5.46 µM (active)

Compound: O=C(c1ccc(F)cc1)C1CCN(c2ncnc3sccc23)CC1
- IC50 [22]: 1.68 µM (active)
- IC50 [23]: > 55.7 µM (inactive)
